Assay results from article PMC7501296, “Rapid and direct control of target protein levels with VHL-recruiting dTAG molecules” (Nature Communications, 2020).

Target: T1, FKBP12^F36V-GFP (Homo sapiens, UniProt P62942, F37V)
T1 construct: expressed in transfected cells; host or cells: EWS502 (lentiviral pLEX_305-dTAG-GFP)
Assay: Immunoblot of EWS502 FKBP12F36V-GFP cells
Format: cell-based
Conditions: 24 h
Experimental: To generate 293T^WT FKBP12^F36V-KRAS^G12V and 293T^VHL−/− FKBP12^F36V-KRAS^G12V cells, concentrated lentiviral supernatants[6] were applied to 293T^WT and 293T^VHL−/− cells[33] in the presence of 4 µg mL^−1 polybrene and transduced cell lines were selected with 2 µg mL^−1 puromycin. To generate EWS502 FKBP12^F36V-GFP cells, EWS502 cells were transduced with pLEX_305-dTAG-GFP lentiviral supernatant and selected with 1 µg mL^−1 puromycin. To generate EWS502 FKBP12^F36V-EWS/FLI; EWS/FLI^−/− cells, EWS502 cells were co-transduced with pLEX_305-dTAG-EWS/FLI and lentiCRISPR v2-Blast-sgFLI_Ex9 lentiviral supernatants. Cells were then selected with both 1 µg mL^−1 puromycin (pLEX_305-dTAG-EWS/FLI) and 5 µg mL^−1 blasticidin (lentiCRISPR v2-Blast-sgFLI_Ex9). Knockout of endogenous EWS/FLI and the expression of exogenous FKBP12^F36V-EWS/FLI were confirmed by immunoblot and pooled transduced cell populations were employed for this study. […]
PATU-8902 LACZ-FKBP12^F36V and FKBP12^F36V-KRAS^G12V; KRAS^−/− cells and 293T cells were lysed with RIPA buffer supplemented with cOmplete protease inhibitors (Roche), PhosSTOP phosphatase inhibitors (Roche), and 0.1% benzonase (Novagen). […] Membranes were washed three times with TBS-T, incubated with the appropriate fluorescently labeled infrared secondary antibodies, washed again three times with TBS-T, and assessed using an Odyssey CLx Imager (LI-COR)[6],[15]. […]

T1 sequence (P62942 2-108 F37V limits assumed): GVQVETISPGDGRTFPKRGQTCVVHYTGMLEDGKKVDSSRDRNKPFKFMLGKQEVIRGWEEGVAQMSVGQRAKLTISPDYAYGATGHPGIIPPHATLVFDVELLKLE

For `CC[C@H](C(=O)N1CCCC[C@H]1C(=O)O[C@H](CCc1ccc(OC)c(OC)c1)c1ccccc1OCC(=O)NCCCCCCOc1cccc2c1C(=O)N(C1CCC(=O)NC1=O)C2=O)c1cc(OC)c(OC)c(OC)c1` (some centres unmarked) [dTAG-13], the “FKBP12F36V-GFP degradation, immunoblot” value was “effectively degraded”.

`CC[C@H](C(=O)N1CCCC[C@H]1C(=O)O[C@H](CCc1ccc(OC)c(OC)c1)c1ccccc1OCC(=O)NCCCCCCC(=O)N[C@H](C(=O)N1C[C@H](O)C[C@H]1C(=O)N[C@@H](C)c1ccc(-c2scnc2C)cc1)C(C)(C)C)c1cc(OC)c(OC)c(OC)c1` [dTAG^V-1] was tested, and the “FKBP12F36V-GFP degradation, immunoblot” value was “effectively degraded”.
